From PubChem BioAssay AID248 (DTP/NCI, 2004)
Several values for one entry are separate records, joined by “and”; a condition that tells them apart may be missing. Equal entries are not always repeated. Inconclusive results and toxic doses are left out. Cut-off read from the data, not from the text of the source: active = T/C of 150% or more; inactive = T/C below 125%.

Tested on: L1210 leukemia ip in BDF1 mice, survival T/C
Assay: NCI In Vivo Anticancer Drug Screen. Data for tumor model L1210 Leukemia (intraperitoneal) in B6D2F1 (BDF1) mice
Conditions: endpoint: mean survival time, higher = longer survival
How it was run: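 Mice bearing the transplanted tumor received compound or vehicle. Survival of the treated group was divided by that of the vehicle-treated control group to give the ratio.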

[1] = dose: 100.0 mg/kg/injection, schedule: Q04DX003 (ip), vehicle: Klucel (hydroxypropylcellulose) (HPC)
[2] = dose: 200.0 mg/kg/injection, schedule: Q04DX003 (ip), vehicle: Klucel (hydroxypropylcellulose) (HPC)
[3] = dose: 400.0 mg/kg/injection, schedule: Q04DX003 (ip), vehicle: Klucel (hydroxypropylcellulose) (HPC)

Measured: T/C

CC1=NNC(C)(C)C1
inactive: dose: 100.0 mg/kg/injection, schedule: Q04DX003 (ip), vehicle: saline 91 % of control | dose: 200.0 mg/kg/injection, schedule: Q04DX003 (ip), vehicle: saline 93 % of control | dose: 400.0 mg/kg/injection, schedule: Q04DX003 (ip), vehicle: saline 98 % of control

CC(C)N=Cc1ccccc1O.CC(C)N=Cc1ccccc1O.[Cu]
inactive: dose: 75.0 mg/kg/injection, schedule: Q01DX001 (ip), vehicle: other 113 % of control

Cc1ccc(C)c(NC(=O)Nc2cccc3ccccc23)c1
inactive: dose: 100.0 mg/kg/injection, schedule: Q01DX009 (ip), vehicle: gum acacia 96 % of control | [1] 89 % of control | dose: 200.0 mg/kg/injection, schedule: Q01DX009 (ip), vehicle: gum acacia 100 % of control | [2] 93 % of control | dose: 400.0 mg/kg/injection, schedule: Q01DX009 (ip), vehicle: gum acacia 91 % of control | [3] 98 % of control

O=C1NC(=O)N(Cc2ccccc2)C(=O)C1Cc1ccccc1 (stereo unspecified)
inactive: dose: 100.0 mg/kg/injection, schedule: Q01DX001 (ip), vehicle: carboxymethylcellulose (CMC) 97 % of control | dose: 200.0 mg/kg/injection, schedule: Q01DX001 (ip), vehicle: carboxymethylcellulose (CMC) 95 % of control | dose: 400.0 mg/kg/injection, schedule: Q01DX001 (ip), vehicle: carboxymethylcellulose (CMC) 103 % of control

C[N+](C)(C)Cc1c[nH]c2ccsc12
inactive: dose: 12.5 mg/kg/injection, schedule: Q01DX001 (ip), vehicle: saline with Tween-80 107 % of control

Cc1ccc(C)c(NC(=O)Oc2ccc(C(=O)OCc3ccccc3)cc2)c1
inactive: dose: 25.0 mg/kg/injection, schedule: Q01DX009 (ip), vehicle: Klucel (hydroxypropylcellulose) (HPC) 100 % of control | dose: 50.0 mg/kg/injection, schedule: Q01DX009 (ip), vehicle: Klucel (hydroxypropylcellulose) (HPC) 88 % of control | dose: 100.0 mg/kg/injection, schedule: Q01DX009 (ip), vehicle: Klucel (hydroxypropylcellulose) (HPC) 93 % of control and 104 % of control | [1] 107 % of control | dose: 200.0 mg/kg/injection, schedule: Q01DX009 (ip), vehicle: Klucel (hydroxypropylcellulose) (HPC) 95 % of control | [2] 98 % of control | [3] 101 % of control

CC(=O)Nc1ccc(/C=C/c2cc[n+](C)cc2)cc1
inactive: dose: 100.0 mg/kg/injection, schedule: Q04DX003 (ip), vehicle: saline with Tween-80 97 % of control | dose: 200.0 mg/kg/injection, schedule: Q04DX003 (ip), vehicle: saline with Tween-80 111 % of control | dose: 400.0 mg/kg/injection, schedule: Q04DX003 (ip), vehicle: saline with Tween-80 102 % of control

CCOC(=O)c1ccc(NC(=O)Cn2cnc3c(=S)nc[nH]c32)cc1
inactive: dose: 25.0 mg/kg/injection, schedule: Q01DX001 (ip), vehicle: Klucel (hydroxypropylcellulose) (HPC) 92 % of control | dose: 50.0 mg/kg/injection, schedule: Q01DX001 (ip), vehicle: Klucel (hydroxypropylcellulose) (HPC) 106 % of control | dose: 100.0 mg/kg/injection, schedule: Q01DX001 (ip), vehicle: Klucel (hydroxypropylcellulose) (HPC) 95 % of control

CC1CN=C(c2ccc(N)cc2)S1 (stereo unspecified)
inactive: dose: 87.0 mg/kg/injection, schedule: Q04DX003 (ip), vehicle: Klucel (hydroxypropylcellulose) (HPC) 94 % of control | dose: 175.0 mg/kg/injection, schedule: Q04DX003 (ip), vehicle: Klucel (hydroxypropylcellulose) (HPC) 105 % of control

O=C(O)COc1ccccc1O
inactive: dose: 100.0 mg/kg/injection, schedule: Q01DX009 (ip), vehicle: saline with Tween-80 101 % of control | dose: 200.0 mg/kg/injection, schedule: Q01DX009 (ip), vehicle: saline with Tween-80 101 % of control
